Source: the supplement of paper PMC10307832

Tests used:
Assay in all cases: relative viability (nuclei count vs DMSO), 5 days (fraction); higher = more cells survive
[1] = compound: C[C@@H](C(=O)N[C@@H](C1CCCCC1)C(=O)N2CCC[C@H]2C(=O)N[C@@H]3[C@@H](CC4=CC=CC=C34)OCC#CC#CCO[C@@H]5CC6=CC=CC=C6[C@@H]5NC(=O)[C@@H]7CCCN7C(=O)[C@H](C8CCCCC8)NC(=O)[C@H](C)NC)NC [AZD5582] + C[C@]1(O)C[C@@H](c2nc(-c3ccc4ccc(-c5ccccc5)nc4c3)c3c(N)nccn32)C1 [Linsitinib] (partner 1 µM)
How it was run: (§1)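 Medians of duplicate plates are given as relative viability. That measure is the nuclei count in treated wells divided by the count in vehicle wells. Counts were taken on 4× images of lung cancer cell lines in 1536-well plates, 5 days after pin-tool dosing the day after seeding with one drug alone or a fixed anchor-drug dose plus five library-drug doses (not always all listed) in √10 steps.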

[2] = compound: Cn1nnc2c(C(N)=O)ncn2c1=O [Temozolomide] + C[C@@H](Oc1cc(-c2cnn(C3CCNCC3)c2)cnc1N)c1c(Cl)ccc(F)c1Cl [Crizotinib] (partner 1 µM)
How it was run: as §1

[3] = compound: Cn1nnc2c(C(N)=O)ncn2c1=O [Temozolomide] + Nc1nc2[nH]cc(CCc3ccc(C(=O)N[C@@H](CCC(=O)O)C(=O)O)cc3)c2c(=O)[nH]1 [Pemetrexed] (partner 0.2 µM)
How it was run: as §1

[4] = compound: Cn1nnc2c(C(N)=O)ncn2c1=O [Temozolomide] + O=C(c1cc(Cc2n[nH]c(=O)c3ccccc23)ccc1F)N1CCN(C(=O)C2CC2)CC1 [Olaparib] (partner 8 µM)
How it was run: as §1

## NCI-H2009
[1]; first compound 0.001581 µM
  relative viability: 1.2
[1]; first compound 0.005 µM
  relative viability: 1.21
[1]; first compound 0.01581 µM
  relative viability: 1.2
[1]; first compound 0.05 µM
  relative viability: 1.16
[2]; first compound 0.2 µM
  relative viability: 1.07
[2]; first compound 0.6325 µM
  relative viability: 1.07
[2]; first compound 2 µM
  relative viability: 1.06
[2]; first compound 6.325 µM
  relative viability: 1.03
[2]; first compound 20 µM
  relative viability: 1.07
[3]; first compound 0.2 µM
  relative viability: 1.08
[3]; first compound 0.6325 µM
  relative viability: 1.06
[3]; first compound 2 µM
  relative viability: 1.05
[3]; first compound 6.325 µM
  relative viability: 1.08
[3]; first compound 20 µM
  relative viability: 1.04
[4]; first compound 0.2 µM
  relative viability: 0.723
[4]; first compound 0.6325 µM
  relative viability: 0.671
[4]; first compound 2 µM
  relative viability: 0.717
[4]; first compound 6.325 µM
  relative viability: 0.641
[4]; first compound 20 µM
  relative viability: 0.499

## NCI-H358
[1]; first compound 0.001581 µM
  relative viability: 0.817
[1]; first compound 0.005 µM
  relative viability: 0.998
[1]; first compound 0.01581 µM
  relative viability: 0.899
[1]; first compound 0.05 µM
  relative viability: 0.847
[2]; first compound 0.2 µM
  relative viability: 0.785
[2]; first compound 0.6325 µM
  relative viability: 0.62
[2]; first compound 2 µM
  relative viability: 0.686
[2]; first compound 6.325 µM
  relative viability: 0.552
[2]; first compound 20 µM
  relative viability: 0.559
[3]; first compound 0.2 µM
  relative viability: 0.196
[3]; first compound 0.6325 µM
  relative viability: 0.173
[3]; first compound 2 µM
  relative viability: 0.18
[3]; first compound 6.325 µM
  relative viability: 0.164
[3]; first compound 20 µM
  relative viability: 0.17
[4]; first compound 0.2 µM
  relative viability: 0.706
[4]; first compound 0.6325 µM
  relative viability: 0.732
[4]; first compound 2 µM
  relative viability: 0.631
[4]; first compound 6.325 µM
  relative viability: 0.545
[4]; first compound 20 µM
  relative viability: 0.351

## NCI-H23
[1]; first compound 0.001581 µM
  relative viability: 0.621
[1]; first compound 0.005 µM
  relative viability: 0.421
[1]; first compound 0.01581 µM
  relative viability: 0.529
[1]; first compound 0.05 µM
  relative viability: 0.418
[2]; first compound 0.2 µM
  relative viability: 0.464
[2]; first compound 0.6325 µM
  relative viability: 0.528
[2]; first compound 2 µM
  relative viability: 0.509
[2]; first compound 6.325 µM
  relative viability: 0.432
[2]; first compound 20 µM
  relative viability: 0.547
[3]; first compound 0.2 µM
  relative viability: 0.825
[3]; first compound 0.6325 µM
  relative viability: 0.749
[3]; first compound 2 µM
  relative viability: 0.716
[3]; first compound 6.325 µM
  relative viability: 0.565
[3]; first compound 20 µM
  relative viability: 0.677
[4]; first compound 0.2 µM
  relative viability: 0.345
[4]; first compound 0.6325 µM
  relative viability: 0.32
[4]; first compound 2 µM
  relative viability: 0.382
[4]; first compound 6.325 µM
  relative viability: 0.266
[4]; first compound 20 µM
  relative viability: 0.22

## NCI-H2085
[1]; first compound 0.001581 µM
  relative viability: 0.755
[1]; first compound 0.005 µM
  relative viability: 0.9
[1]; first compound 0.01581 µM
  relative viability: 0.891
[1]; first compound 0.05 µM
  relative viability: 0.938
[2]; first compound 0.2 µM
  relative viability: 0.746
[2]; first compound 0.6325 µM
  relative viability: 0.904
[2]; first compound 2 µM
  relative viability: 0.651
[2]; first compound 6.325 µM
  relative viability: 0.866
[2]; first compound 20 µM
  relative viability: 0.685
[3]; first compound 0.2 µM
  relative viability: 1.04
[3]; first compound 0.6325 µM
  relative viability: 0.951
[3]; first compound 2 µM
  relative viability: 0.979
[3]; first compound 6.325 µM
  relative viability: 0.926
[3]; first compound 20 µM
  relative viability: 0.744
[4]; first compound 0.2 µM
  relative viability: 0.773
[4]; first compound 0.6325 µM
  relative viability: 0.765
[4]; first compound 2 µM
  relative viability: 0.797
[4]; first compound 6.325 µM
  relative viability: 0.677
[4]; first compound 20 µM
  relative viability: 0.491

## NCI-H1755
[1]; first compound 0.001581 µM
  relative viability: 1.01
[1]; first compound 0.005 µM
  relative viability: 1.02
[1]; first compound 0.01581 µM
  relative viability: 0.982
[1]; first compound 0.05 µM
  relative viability: 1.09
[2]; first compound 0.2 µM
  relative viability: 1
[2]; first compound 0.6325 µM
  relative viability: 0.894
[2]; first compound 2 µM
  relative viability: 0.894
[2]; first compound 6.325 µM
  relative viability: 0.805
[2]; first compound 20 µM
  relative viability: 0.678
[3]; first compound 0.2 µM
  relative viability: 0.433
[3]; first compound 0.6325 µM
  relative viability: 0.43
[3]; first compound 2 µM
  relative viability: 0.388
[3]; first compound 6.325 µM
  relative viability: 0.39
[3]; first compound 20 µM
  relative viability: 0.612
[4]; first compound 0.2 µM
  relative viability: 0.905
[4]; first compound 0.6325 µM
  relative viability: 0.85
[4]; first compound 2 µM
  relative viability: 0.926
[4]; first compound 6.325 µM
  relative viability: 0.829
[4]; first compound 20 µM
  relative viability: 0.568

## NCI-H1666
[1]; first compound 0.001581 µM
  relative viability: 0.779
[1]; first compound 0.005 µM
  relative viability: 0.713
[1]; first compound 0.01581 µM
  relative viability: 0.848
[1]; first compound 0.05 µM
  relative viability: 0.861
[2]; first compound 0.2 µM
  relative viability: 0.888
[2]; first compound 0.6325 µM
  relative viability: 0.858
[2]; first compound 2 µM
  relative viability: 0.698
[2]; first compound 6.325 µM
  relative viability: 0.648
[2]; first compound 20 µM
  relative viability: 0.518
[3]; first compound 0.2 µM
  relative viability: 0.736
[3]; first compound 0.6325 µM
  relative viability: 0.895
[3]; first compound 2 µM
  relative viability: 0.963
[3]; first compound 6.325 µM
  relative viability: 0.877
[3]; first compound 20 µM
  relative viability: 0.767
[4]; first compound 0.2 µM
  relative viability: 0.731
[4]; first compound 0.6325 µM
  relative viability: 0.729
[4]; first compound 2 µM
  relative viability: 0.771
[4]; first compound 6.325 µM
  relative viability: 0.639
[4]; first compound 20 µM
  relative viability: 0.604

## UMC-11
[1]; first compound 0.001581 µM
  relative viability: 0.931
[1]; first compound 0.005 µM
  relative viability: 1.07
[1]; first compound 0.01581 µM
  relative viability: 0.96
[1]; first compound 0.05 µM
  relative viability: 1.11
[2]; first compound 0.2 µM
  relative viability: 0.774
[2]; first compound 0.6325 µM
  relative viability: 0.646
[2]; first compound 2 µM
  relative viability: 0.692
[2]; first compound 6.325 µM
  relative viability: 0.632
[2]; first compound 20 µM
  relative viability: 0.333
[3]; first compound 0.2 µM
  relative viability: 0.758
[3]; first compound 0.6325 µM
  relative viability: 0.712
[3]; first compound 2 µM
  relative viability: 0.835
[3]; first compound 6.325 µM
  relative viability: 0.805
[3]; first compound 20 µM
  relative viability: 0.588
[4]; first compound 0.2 µM
  relative viability: 0.386
[4]; first compound 0.6325 µM
  relative viability: 0.612
[4]; first compound 2 µM
  relative viability: 0.382
[4]; first compound 6.325 µM
  relative viability: 0.306
[4]; first compound 20 µM
  relative viability: 0.265

## HCC-78
[1]; first compound 0.001581 µM
  relative viability: 0.455
[1]; first compound 0.005 µM
  relative viability: 0.592
[1]; first compound 0.01581 µM
  relative viability: 0.5
[1]; first compound 0.05 µM
  relative viability: 0.45
[2]; first compound 0.2 µM
  relative viability: 0.293
[2]; first compound 0.6325 µM
  relative viability: 0.331
[2]; first compound 2 µM
  relative viability: 0.382
[2]; first compound 6.325 µM
  relative viability: 0.361
[2]; first compound 20 µM
  relative viability: 0.248
[3]; first compound 0.2 µM
  relative viability: 0.896
[3]; first compound 0.6325 µM
  relative viability: 0.921
[3]; first compound 2 µM
  relative viability: 0.927
[3]; first compound 20 µM
  relative viability: 0.958
[4]; first compound 0.2 µM
  relative viability: 0.676
[4]; first compound 0.6325 µM
  relative viability: 0.778
[4]; first compound 2 µM
  relative viability: 0.855
[4]; first compound 20 µM
  relative viability: 0.471

## NCI-H1944
[1]; first compound 0.001581 µM
  relative viability: 1.15
[1]; first compound 0.005 µM
  relative viability: 1.4
[1]; first compound 0.01581 µM
  relative viability: 1.21
[1]; first compound 0.05 µM
  relative viability: 1.44
[2]; first compound 0.2 µM
  relative viability: 0.817
[2]; first compound 0.6325 µM
  relative viability: 1.08
[2]; first compound 2 µM
  relative viability: 1.18
[2]; first compound 6.325 µM
  relative viability: 1.06
[2]; first compound 20 µM
  relative viability: 0.975
[3]; first compound 0.2 µM
  relative viability: 0.546
[3]; first compound 0.6325 µM
  relative viability: 0.601
[3]; first compound 2 µM
  relative viability: 0.564
[3]; first compound 6.325 µM
  relative viability: 0.58
[3]; first compound 20 µM
  relative viability: 0.623
[4]; first compound 0.2 µM
  relative viability: 0.428
[4]; first compound 0.6325 µM
  relative viability: 0.38
[4]; first compound 2 µM
  relative viability: 0.377
[4]; first compound 6.325 µM
  relative viability: 0.315
[4]; first compound 20 µM
  relative viability: 0.27
